Measurements taken from patent US7696129B2, “Substituted aromatic amide derivative, intermediate thereof, agrohorticultural insecticide containing thereof and method for the use thereof” (Nihon Nohyaku Co., Ltd., priority 2001, dated 2010).

Legend:
Type in all cases: in vivo
[1] = test system: Common Cutworm (Spodoptera litura); experiment: Test Example 2: insecticidal effect on common cutworm, cabbage leaf immersion; details: cabbage leaf immersed about 30 seconds, second-instar larvae, 25° C., eight days after the inoculation; for Test Example 2 (insecticidal effect, mortality criterion): 50 ppm; for mortality at 50 ppm: Spodoptera litura, 192 h, read-out: Test Example 2 (insecticidal effect, mortality criterion)
Summary of the method: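 Cabbage leaf pieces dipped about 30 seconds in 50 ppm compound dilution, air-dried, then infested with second-instar larvae and kept at 25° C. Dead and alive counted eight days after inoculation to give mortality; triplicate groups of 10 insects.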

[2] = test system: Diamond Back Moth (Plutella xylostella); experiment: Test Example 1: insecticidal effect on diamond back moth, immersion of Chinese cabbage seedling with eggs; details: seedling with eggs immersed about 30 seconds, 25° C., six days after the immersion; for Test Example 1 (insecticidal effect, mortality criterion): 50 ppm; for mortality at 50 ppm: Plutella xylostella, 144 h, read-out: Test Example 1 (insecticidal effect, mortality criterion)
Summary of the method: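 Chinese cabbage seedlings bearing 2-day-old moth eggs dipped about 30 s in compound at 50 ppm, air-dried, held at 25° C. Hatched larvae counted six days later to give mortality; triplicate groups of 10 insects.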

[3] = test system: Smaller Tea Tortrix (Adxophyes sp.); experiment: Test Example 3: insecticidal effect on smaller tea tortrix, tea leaf immersion; details: 50 ppm, tea leaves immersed about 30 seconds, larvae, 25° C., humidity 70%, eight days after the inoculation
Summary of the method: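 Tea leaves dipped about 30 s in compound diluted to 50 ppm, air-dried, then infested with smaller tea tortrix larvae at 25°C and 70% humidity. Mortality counted 8 days post-inoculation and scored by a graded criterion; triplicate groups of 10 insects.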

[4] = test system: Diamond Back Moth (Plutella xylostella); experiment: Test Example 4: controlling effect on diamond back moth with soil treatment (pricking-in hole treatment with granules); details: 10 mgAI/plant, soil treatment at fix planting, about 50 eggs inoculated nine days after planting
Excerpt: Controlling Effect on Diamond Back Moth (Plutella xylostella) with Soil Treatment of […] The pricking-in hole treatment was done with the granules containing each compound listed in Tables 4 according to the formulation examples of the present invention, at the fix planting of […] (cultivar; YR Seitoku). Nine days after the fix planting, about 50 eggs of diamond back moth (Plutella xylostella) were innoculated, then the number of the parasitic insects of diamond back moth (Plutella xylostella) was counted on the specified days after the innoculation.

Row | Structure (SMILES) | Test Example 2 (insecticidal effect, mortality criterion) [1] | Test Example 1 (insecticidal effect, mortality criterion) [2] | Test Example 3 (insecticidal effect, mortality criterion) [3] | Number of the parasitic insects/three plants After 18 days [4] | Number of the parasitic insects/three plants After 25 days [4] | Number of the parasitic insects/three plants After 32 days [4] | mortality at 50 ppm [1] [%] | mortality at 50 ppm [2] [%]
1 | CSCC(C)(C)NC(=O)c1c(I)cccc1C(=O)Nc1ccc(C(C(F)(F)F)C(F)(F)F)cc1C [5-30] | A (Mortality 100%) | A (Mortality 100%) | A (Mortality 100%) | 0 parasitic insects/three plants | 3 parasitic insects/three plants | 22 parasitic insects/three plants | – | –
2 | Cc1cc(C(C(F)(F)F)C(F)(F)F)ccc1NC(=O)c1cccc(I)c1C1=NC(C)(CS(C)(=O)=O)CO1 (stereo not drawn) [10-4] | E (Mortality 49% or less) | A (Mortality 100%) | E (Mortality 49% or less) | – | – | – | – | –
3 | CCc1cc(CC(F)(F)F)ccc1NC(=O)c1cccc(I)c1C(=O)NC(C)(C)CSC [Compound No. 5-2] | A (Mortality 100%) | A (Mortality 100%) | A (Mortality 100%) | – | – | – | – | –
4 | CSCC(C)(C)NC(=O)c1c(I)cccc1C(=O)Nc1ccc(C(C(F)(F)F)C(F)(F)F)cc1C [Compound No. 5-28, N^2-(1,1-dimethyl-2-methylthioethyl)-3-iodo-N^1-{2-methyl-4-[2,2,2-trifluoro-1-(trifluoromethyl)ethyl]phenyl}phthalamide] | – | – | A (Mortality 100%) | 0 parasitic insects/three plants | 5 parasitic insects/three plants | 14 parasitic insects/three plants | 100 | 100
5 | Cc1cc(C(C(F)(F)F)C(F)(F)F)ccc1NC(=O)c1cccc(I)c1C(=O)NC(C)(C)C[S+](C)[O-] (stereo not drawn) [Compound No. 5-29, N^2-(1,1-dimethyl-2-methylsulfinylethyl)-3-iodo-N^1-[2-methyl-4-{2,2,2-trifluoro-1-(trifluoromethyl)ethyl}phenyl]phthalamide] | – | – | A (Mortality 100%) | 0 parasitic insects/three plants | 0 parasitic insects/three plants | 0 parasitic insects/three plants | 100 | 100
6 | CSCC(C)(C)NC(=O)c1c(I)cccc1C(=O)Nc1ccc(C(C(F)(F)F)C(F)(F)F)nc1Cl [Compound No. 8-4, N^2-(1,1-dimethyl-2-methylthioethyl)-3-iodo-N^1-{2-chloro-6-[2,2,2-trifluoro-1-(trifluoromethyl)ethyl]pyridin-3-yl}phthalamide] | – | – | A (Mortality 100%) | – | – | – | 100 | 100
7 | Cc1cc(C(C(F)(F)F)C(F)(F)F)ccc1NC(=O)c1cccc(I)c1C1=NC(C)(C)CO1 [Compound No. 10-1, 3-iodo-2-(4,4-dimethyloxazolin-2-yl)-2′-methyl-4′-[2,2,2-trifluoro-1-(trifluoromethyl)ethyl]benzanilide] | – | – | E (Mortality 49% or less) | – | – | – | ≤ 49 | 100
